Laboratory results published in EP4759807A1, “PROTEOLYSIS TARGETING CHIMERA COMPOUND FOR DEGRADING IRAK4 AND USE THEREOF” (Shenzhen Zhongge Biological Technology Co., Ltd., priority 2023, dated 2025).
Counter-ions that a name gives are not always drawn.

Molecular target: T1, IRAK4 (Homo sapiens, UniProt Q9NWZ3)
T1 sequence (Q9NWZ3 1-460): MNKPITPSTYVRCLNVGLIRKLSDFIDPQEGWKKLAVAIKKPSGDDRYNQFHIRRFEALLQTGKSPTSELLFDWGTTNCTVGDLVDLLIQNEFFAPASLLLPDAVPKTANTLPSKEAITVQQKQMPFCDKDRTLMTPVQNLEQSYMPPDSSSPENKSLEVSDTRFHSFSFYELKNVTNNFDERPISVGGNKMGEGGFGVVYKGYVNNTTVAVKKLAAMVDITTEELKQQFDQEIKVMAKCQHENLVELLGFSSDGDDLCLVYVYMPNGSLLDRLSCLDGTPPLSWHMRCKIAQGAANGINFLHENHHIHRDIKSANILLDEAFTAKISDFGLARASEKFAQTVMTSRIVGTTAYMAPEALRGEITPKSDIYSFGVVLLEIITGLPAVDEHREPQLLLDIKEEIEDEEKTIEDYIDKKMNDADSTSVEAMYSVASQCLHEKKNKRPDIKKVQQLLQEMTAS
Test: Hibit fluorescence detection of proteolysis (IRAK4-HiBiT in HEK293T cells)
Assay type: cell-based
Design: host or cells: HEK293T (ATCC)
Conditions: for Dmax: HEK-293T; for DC50: IRAK4-HiBiT, HEK293T cells, 24 h
Outline: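 Degradation read-out: luminescence from lytic HiBiT detection (15 min, room temperature) after 24 h compound exposure (37 °C, 5% CO2) of HEK293T cells transiently expressing IRAK4 fused to a HiBiT tag. Data fitted to a bell-shaped four-parameter model giving two EC50 values.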

Question: How did the Dmax turn out when `Cn1c(=O)n(C2CCC(=O)NC2=O)c2cccc(NC(=O)CN3CCN(C[C@H]4CC[C@H](n5cc(-n6cc(-n7ccc8cc(C(N)=O)cnc87)nn6)c(C(F)F)n5)CC4)CC3)c21` (stereo partly shown) [Example 107, 1-(1-(3-(difluoromethyl)-1-((1r,4r)-4-((4-(2-((1-(2,6-dioxopiperidin-3-yl)-3-methyl-2-oxo-2,3-dihydro-1H-benzo[d]imidazol-4-yl)amino)-2-oxoethyl)piperazin-1-yl)methyl)cyclohexyl)-1H-pyrazol-4-yl)-1H - 1,2,3-triazol-4-yl)-1H-pyrrolo[2,3-b]pyridine-5-carboxamide] was run?
Answer: > 80%

Question: And the DC50?
Answer: 1000 to 5000 pM

Question: How did the Dmax turn out when `Cn1c(=O)n(C2CCC(=O)NC2=O)c2cccc(N3CCC4(CCN(C[C@H]5CC[C@H](n6cc(-n7cc(-c8cnn9ccc(NCC%10CC%10)nc89)nn7)c(C(F)F)n6)CC5)CC4)C3)c21` (stereo partly shown) [Example 109] was run?
Answer: > 80%

Question: What about the DC50 of the same molecule?
Answer: 500 to 1000 pM

Question: Which Dmax does the source give for `Cn1c(=O)n(C2CCC(=O)NC2=O)c2cccc(N3CCN(C4CCN(C[C@H]5CC[C@H](n6cc(-n7cc(-c8cnn9ccc(NCC%10CC%10)nc89)nn7)c(C(F)F)n6)CC5)CC4)CC3)c21` (stereo partly shown) [Example 110, 3-(4-(4-(1-(((1r,4r)-4-(4-(5-((cyclopropylmethyl)amino)pyrazolo[1,5-a]pyrimidin-3-yl)-1H-1,2,3-triazol-1-yl)-3-(difluoromethyl)-1H-pyrazol-1-ylcyclohexyl)methyl)piperidin-4-yl)piperazin-1-yl)3-methyl-2-oxo-2,3-dihydro-1H-benzo[d]imidazol-1-yl)piperidine-2,6-dione] here?
Answer: > 80%

Question: And the DC50?
Answer: < 500 pM

Question: With `Cn1c(=O)n(C2CCC(=O)NC2=O)c2cccc(N3CCC(N4CCN(C[C@H]5CC[C@H](n6cc(-n7cc(-c8cnn9ccc(N%10CCS(=O)(=O)CC%10)nc89)nn7)c(C(F)F)n6)CC5)CC4)CC3)c21` (stereo partly shown) [Example 111, 3-(4-(4-(((1r,4r)-4-(3-(difluoromethyl)-4-(4-(5-(1,1-dioxodimorpholinyl)pyrazolo[1,5-a]pyrimidin-3-yl)-1H-1,2,3-triazol-1-yl)-1H-pyrazol-1-ylcyclohexyl)methyl)piperazin-1-yl)piperidin-1-yl)-3-methyl-2-oxo-2,3-dihydro-1H-benzo[d]imidazol-1-yl)pyridine-2,6-dione] as the molecule, how does the Dmax read?
Answer: > 80%

Question: What about the DC50 of the same molecule?
Answer: 500 to 1000 pM

Question: Which results are given for `Cn1c(=O)n(C2CCC(=O)NC2=O)c2cccc(N3CCC4(CCN(C[C@H]5CC[C@H](n6cc(-n7cc(-c8cnn9ccc(N%10CCS(=O)(=O)CC%10)nc89)nn7)c(C(F)F)n6)CC5)CC4)CC3)c21` (stereo partly shown) [Example 112]?
Answer: Dmax: > 80%; DC50: < 500 pM

Question: What does the source list for `Cn1c(=O)n(C2CCC(=O)NC2=O)c2cccc(N3CCC(N4CCN(C[C@H]5CC[C@H](n6cc(-n7cc(-c8cnn9ccc(NCC%10CC%10)nc89)nn7)c(C(F)F)n6)CC5)CC4)CC3)c21` (stereo partly shown) [Example 114]?
Answer: Dmax: > 80%; DC50: < 500 pM

Question: How did the Dmax turn out when `Cn1c(=O)n(C2CCC(=O)NC2=O)c2cccc(N3CCN(C4CCN(C[C@H]5CC[C@H](n6cc(-n7cc(-c8cnn9ccc(N%10CCC[C@H](N)C%10)nc89)nn7)c(C(F)F)n6)CC5)CC4)CC3)c21` (stereo partly drawn) [Example 117, 3-{4-[4-(1-{[(1S,4r)-4-[3-(difluoromethyl)-4-(4-{5-[(3S)-3-aminohexahydropyridin-1-yl]pyrazolo[1,5-a]pyrimidin-3-yl}-1,2,3-triazol-1-yl)pyrazol-1-yl]cyclohexyl]methyl}hexahydropyridin-4-yl)piperazin-1-yl]-3-methyl-2-oxobenzo[d]imidazol-1-yl}hexahydropyridine-2,6-dione hydrochloride] was run?
Answer: > 80%

Question: And the DC50?
Answer: 1000 to 5000 pM

Question: How did the Dmax turn out when `Cn1c(=O)n(C2CCC(=O)NC2=O)c2cccc(N3CCC4(CCN(C[C@H]5CC[C@H](n6cc(-n7cc(-c8cnn9ccc(N%10CCC(C)(O)CC%10)nc89)nn7)c(C(F)F)n6)CC5)CC4)CC3)c21` (stereo partly shown) [Example 121] was run?
Answer: > 80%

Question: What about the DC50 of the same molecule?
Answer: < 500 pM
